From paper PMC11879280, “Antimicrobial activity of peptoids against Metallo-β-lactamase-producing Klebsiella pneumoniae, Acinetobacter baumannii, Pseudomonas aeruginosa, and other WHO priority pathogens, including Candida auris” (Journal of Applied Microbiology, 2025)
Read-outs that look alike come from different tables or passages of the source. Square brackets hold non-standard residues; d marks the D form. Peptide text beside a SMILES is read from it. Nspe(4-Br) = C[C@H](NCC(=O)O)c1ccc(Br)cc1; Nspe = C[C@H](NCC(=O)O)c1ccccc1; Nlys = NCCCCNCC(=O)O

Tests used:
[1] = test system: ESKAPEE pathogens (all bacteria); assay: Geometric mean MIC, therapeutic index and selectivity ratio, all bacteria; format: cell-based; details: for Geometric mean MIC, all bacteria: across the 23 ESKAPEE strains
Experimental: Briefly, bacteria were suspended in cation-adjusted Mueller–Hinton broth (CAMHB; Oxoid, UK) for antibiotics, or MHB (Oxoid, UK) for peptidomimetics to obtain 5 × 10^5 colony forming unit (CFU) ml^−1. […] Positive controls contained only microbes, and blanks contained only media. Microbial suspensions (100 µl) were added to wells, plates wrapped, and incubated at 37°C, 120 rpm for 16–20 h. After incubation, suspensions were removed, log10 diluted, and plated on Trypticase Soya Agar with phosphatidylcholine and Tween 80 to determine minimum bactericidal or fungicidal concentration (MBC or MFC). […] Geometric mean MIC of the peptoids were calculated to evaluate the broad overview of antimicrobial activity across the pathogens.
The therapeutic indices (TIs) of the compounds were calculated with the use of following formula: […]

K. pneumoniae JIE4212 = test system: K. pneumoniae JIE4212
Method in brief: (§1)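 Suspensions of 5 × 10^5 CFU ml^−1 were incubated with compounds for 16–20 h at 37°C and 120 rpm, the medium being MHB for peptidomimetics and cation-adjusted MHB for antibiotics. Wells were afterwards log10 diluted and plated to obtain MBC.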

P. aeruginosa 216 = test system: P. aeruginosa 216
Method in brief: as §1

P. aeruginosa AR-1270 = test system: P. aeruginosa AR-1270
Method in brief: as §1

K. pneumoniae JIE2713 = test system: K. pneumoniae JIE2713
Method in brief: as §1

E. coli 0010 = test system: E. coli 0010
Method in brief: as §1

S. aureus 38 = test system: S. aureus 38
Method in brief: as §1

En. cloacae 005 = test system: En. cloacae 005
Method in brief: as §1

S. aureus 117 = test system: S. aureus 117
Method in brief: as §1

En. cloacae 001 = test system: En. cloacae 001
Method in brief: as §1

P. aeruginosa 33 = test system: P. aeruginosa 33
Method in brief: as §1

S. aureus 04 = test system: S. aureus 04
Method in brief: as §1

A. baumannii 008 = test system: A. baumannii 008
Method in brief: as §1

A. baumannii 007 = test system: A. baumannii 007
Method in brief: as §1

A. baumannii 005 = test system: A. baumannii 005
Method in brief: as §1

A. baumannii ATCC 19 606 = test system: A. baumannii ATCC 19 606
Method in brief: as §1

S. aureus 105 = test system: S. aureus 105
Method in brief: as §1

A. baumannii 006 = test system: A. baumannii 006
Method in brief: as §1

E. coli 0015 = test system: E. coli 0015
Method in brief: as §1

En. cloacae 003 = test system: En. cloacae 003
Method in brief: as §1

E. coli 005 = test system: E. coli 005
Method in brief: as §1

K. pneumoniae JIE2709 = test system: K. pneumoniae JIE2709
Method in brief: as §1

E. coli 0011 = test system: E. coli 0011
Method in brief: as §1

[2] = test system: Enteroc. faecalis NCTC 13 379
Method in brief: as §1

[3] = K. pneumoniae JIE4212, MHB (melimine/Mel4 with 0.2% BSA, 0.01% acetic acid), mean MIC
[4] = P. aeruginosa 216, MHB (melimine/Mel4 with 0.2% BSA, 0.01% acetic acid), mean MIC
[5] = P. aeruginosa AR-1270, MHB (melimine/Mel4 with 0.2% BSA, 0.01% acetic acid), mean MIC
[6] = K. pneumoniae JIE2713, MHB (melimine/Mel4 with 0.2% BSA, 0.01% acetic acid), mean MIC
[7] = E. coli 0010, MHB (melimine/Mel4 with 0.2% BSA, 0.01% acetic acid), mean MIC
[8] = S. aureus 38, MHB (melimine/Mel4 with 0.2% BSA, 0.01% acetic acid), mean MIC
[9] = En. cloacae 005, MHB (melimine/Mel4 with 0.2% BSA, 0.01% acetic acid), mean MIC
[10] = S. aureus 117, MHB (melimine/Mel4 with 0.2% BSA, 0.01% acetic acid), mean MIC
[11] = En. cloacae 001, MHB (melimine/Mel4 with 0.2% BSA, 0.01% acetic acid), mean MIC
[12] = P. aeruginosa 33, MHB (melimine/Mel4 with 0.2% BSA, 0.01% acetic acid), mean MIC
[13] = S. aureus 004, MHB (melimine/Mel4 with 0.2% BSA, 0.01% acetic acid), mean MIC
[14] = A. baumannii 008, MHB (melimine/Mel4 with 0.2% BSA, 0.01% acetic acid), mean MIC
[15] = A. baumannii 007, MHB (melimine/Mel4 with 0.2% BSA, 0.01% acetic acid), mean MIC
[16] = A. baumannii 005, MHB (melimine/Mel4 with 0.2% BSA, 0.01% acetic acid), mean MIC
[17] = A. baumannii ATCC 19 606, MHB (melimine/Mel4 with 0.2% BSA, 0.01% acetic acid), mean MIC
[18] = S. aureus 105, MHB (melimine/Mel4 with 0.2% BSA, 0.01% acetic acid), mean MIC
[19] = A. baumannii 006, MHB (melimine/Mel4 with 0.2% BSA, 0.01% acetic acid), mean MIC
[20] = E. coli 0015, MHB (melimine/Mel4 with 0.2% BSA, 0.01% acetic acid), mean MIC
[21] = En. cloacae 003, MHB (melimine/Mel4 with 0.2% BSA, 0.01% acetic acid), mean MIC
[22] = E. coli 005, MHB (melimine/Mel4 with 0.2% BSA, 0.01% acetic acid), mean MIC
[23] = K. pneumoniae JIE2709, MHB (melimine/Mel4 with 0.2% BSA, 0.01% acetic acid), mean MIC
[24] = E. coli 0011, MHB (melimine/Mel4 with 0.2% BSA, 0.01% acetic acid), mean MIC
[25] = Enteroc. faecalis NCTC 13 379, MHB (melimine/Mel4 with 0.2% BSA, 0.01% acetic acid), mean MIC

C[C@@H](c1ccc(Br)cc1)N(CC(=O)N(CCCCN)CC(=O)N(CC(=O)N(CC(=O)N(CCCCN)CC(N)=O)[C@@H](C)c1ccc(Br)cc1)[C@@H](C)c1ccccc1)C(=O)CN(C(=O)CNCCCCN)[C@@H](C)c1ccccc1 [TM12] (H-[Nlys][Nspe][Nspe(4-Br)][Nlys][Nspe][Nspe(4-Br)][Nlys]-NH2)
25.9 µM: MIC of peptidomimetics (P. aeruginosa 216; 216) | MIC of peptidomimetics (E. coli 0011; 0011)
6.5 µM: MIC of peptidomimetics (S. aureus 38; 38) | MIC of peptidomimetics (S. aureus 105; 105) | MIC of peptidomimetics ([2]; NCTC 13)
31.3 µg/mL: MIC of peptidomimetics (P. aeruginosa 216; [4]) | MIC of peptidomimetics (E. coli 0011; [24])
125 µg/mL: MIC of peptidomimetics (K. pneumoniae JIE4212; [3]) | MIC of peptidomimetics (P. aeruginosa AR-1270; [5]) | MIC of peptidomimetics (K. pneumoniae JIE2713; [6]) | MIC of peptidomimetics (E. coli 0010; [7]) | MIC of peptidomimetics (A. baumannii ATCC 19 606; [17]) | MIC of peptidomimetics (A. baumannii 006; [19]) | MIC of peptidomimetics (E. coli 005; [22]) | MIC of peptidomimetics (K. pneumoniae JIE2709; [23])
3.9 µg/mL: MIC of peptidomimetics (S. aureus 117; [10]) | MIC of peptidomimetics (P. aeruginosa 33; [12]) | MIC of peptidomimetics (S. aureus 04; [13]) | MIC of peptidomimetics (En. cloacae 003; [21])
7.8 µg/mL: MIC of peptidomimetics (S. aureus 38; [8]) | MIC of peptidomimetics (S. aureus 105; [18]) | MIC of peptidomimetics [2, 25]
103.8 µM: MIC of peptidomimetics (K. pneumoniae JIE4212; JIE4212) | MIC of peptidomimetics (P. aeruginosa AR-1270; AR-1270) | MIC of peptidomimetics (K. pneumoniae JIE2713; JIE2713) | MIC of peptidomimetics (E. coli 0010; 0010) | MIC of peptidomimetics (A. baumannii ATCC 19 606; ATCC 19) | MIC of peptidomimetics (A. baumannii 006; 006) | MIC of peptidomimetics (E. coli 005; 005) | MIC of peptidomimetics (K. pneumoniae JIE2709; JIE2709)
3.3 µM: MIC of peptidomimetics (S. aureus 117; 117) | MIC of peptidomimetics (P. aeruginosa 33; 33) | MIC of peptidomimetics (S. aureus 04; 04) | MIC of peptidomimetics (En. cloacae 003)
51.8 µM: MIC of peptidomimetics (A. baumannii 008; 008) | MIC of peptidomimetics (A. baumannii 007; 007) | MIC of peptidomimetics (A. baumannii 005; 005) | MIC of peptidomimetics (E. coli 0015; 0015)
13.0 µM: MIC of peptidomimetics (En. cloacae 005) | MIC of peptidomimetics (En. cloacae 001)
26.0 µM: Geometric mean MIC, all bacteria ([1]; value in brackets)
62.5 µg/mL: MIC of peptidomimetics (A. baumannii 008; [14]) | MIC of peptidomimetics (A. baumannii 007; [15]) | MIC of peptidomimetics (A. baumannii 005; [16]) | MIC of peptidomimetics (E. coli 0015; [20])
3 fold: Fold increase in geometric mean MIC relative to TM4 ([1]; bacteria)
31.2 µg/mL: Geometric mean MIC, all bacteria [1]
15.6 µg/mL: MIC of peptidomimetics (En. cloacae 005; [9]) | MIC of peptidomimetics (En. cloacae 001; [11])

C[C@@H](c1ccc(Br)cc1)N(CC(=O)N(CCCCN)CC(=O)N(CC(=O)N(CC(=O)N(CCCCN)CC(N)=O)[C@@H](C)c1ccc(Br)cc1)[C@@H](C)c1ccc(Br)cc1)C(=O)CN(C(=O)CNCCCCN)[C@@H](C)c1ccc(Br)cc1 [TM14] (H-[Nlys][Nspe(4-Br)][Nspe(4-Br)][Nlys][Nspe(4-Br)][Nspe(4-Br)][Nlys]-NH2)
14.6 µM: Geometric mean MIC, all bacteria ([1]; value in brackets)
11.4 µM: MIC of peptidomimetics (A. baumannii 005; 005) | MIC of peptidomimetics (A. baumannii 006; 006)
2.9 µM: MIC of peptidomimetics (S. aureus 38; 38) | MIC of peptidomimetics (S. aureus 105; 105)
23.0 µM: MIC of peptidomimetics (K. pneumoniae JIE4212; JIE4212) | MIC of peptidomimetics (E. coli 0010; 0010) | MIC of peptidomimetics (A. baumannii 008; 008) | MIC of peptidomimetics (A. baumannii 007; 007) | MIC of peptidomimetics (A. baumannii ATCC 19 606; ATCC 19) | MIC of peptidomimetics (E. coli 0015; 0015) | MIC of peptidomimetics (E. coli 005; 005) | MIC of peptidomimetics (E. coli 0011; 0011)
19.9 µg/mL: Geometric mean MIC, all bacteria [1]
3.9 µg/mL: MIC of peptidomimetics (S. aureus 38; [8]) | MIC of peptidomimetics (S. aureus 105; [18])
45.9 µM: MIC of peptidomimetics (P. aeruginosa AR-1270; AR-1270) | MIC of peptidomimetics (En. cloacae 005) | MIC of peptidomimetics (En. cloacae 003) | MIC of peptidomimetics (K. pneumoniae JIE2709; JIE2709)
62.5 µg/mL: MIC of peptidomimetics (P. aeruginosa AR-1270; [5]) | MIC of peptidomimetics (En. cloacae 005; [9]) | MIC of peptidomimetics (En. cloacae 003; [21]) | MIC of peptidomimetics (K. pneumoniae JIE2709; [23])
5.7 µM: MIC of peptidomimetics (K. pneumoniae JIE2713; JIE2713) | MIC of peptidomimetics (S. aureus 117; 117) | MIC of peptidomimetics (S. aureus 04; 04) | MIC of peptidomimetics ([2]; NCTC 13)
7.8 µg/mL: MIC of peptidomimetics (K. pneumoniae JIE2713; [6]) | MIC of peptidomimetics (S. aureus 117; [10]) | MIC of peptidomimetics (S. aureus 04; [13]) | MIC of peptidomimetics [2, 25]
31.3 µg/mL: MIC of peptidomimetics (K. pneumoniae JIE4212; [3]) | MIC of peptidomimetics (E. coli 0010; [7]) | MIC of peptidomimetics (A. baumannii 008; [14]) | MIC of peptidomimetics (A. baumannii 007; [15]) | MIC of peptidomimetics (A. baumannii ATCC 19 606; [17]) | MIC of peptidomimetics (E. coli 0015; [20]) | MIC of peptidomimetics (E. coli 005; [22]) | MIC of peptidomimetics (E. coli 0011; [24])
11.5 µM: MIC of peptidomimetics (P. aeruginosa 216; 216) | MIC of peptidomimetics (En. cloacae 001) | MIC of peptidomimetics (P. aeruginosa 33; 33)
15.6 µg/mL: MIC of peptidomimetics (P. aeruginosa 216; [4]) | MIC of peptidomimetics (En. cloacae 001; [11]) | MIC of peptidomimetics (P. aeruginosa 33; [12]) | MIC of peptidomimetics (A. baumannii 005; [16]) | MIC of peptidomimetics (A. baumannii 006; [19])
